Values quoted from earlier work, collected in patent US20090252711A1, “Stem Cells And Methods Of Making And Using Stem Cells” (priority 2006, published 2009).

What was measured:
[1] = test system: cultured ASCs; conditions: Cho et al. 2005
[2] = test system: lung fibroblast cells; conditions: Mukhopadhyay et al. 2005
[3] = test system: neural stem cells; conditions: Marin-Husstege et al. 2002
[4] = test system: hTERT; conditions: normal human cells; Hou et al.

SMILES | differentiation towards the osteogenic (bone) lineage [1] | telomerase activity [2] | differentiation of neural stem cells towards the astrocyte cell type [3] | differentiation of neural stem cells towards the oligodendrocyte cell type [3] | expression of the gene hTERT [4]
CCCC(CCC)C(=O)O [Valproic acid] | enhanced differentiation |  |  |  | 
CC(/C=C/C(=O)NO)=C\[C@@H](C)C(=O)c1ccc(N(C)C)cc1 [trichostatin A] | enhanced differentiation | induced | not towards the astrocyte cell type | blocked | upregulation
